Drawing on patent publication US11130752B2, “Aminopyrimidine compound” (Cardurion Pharmaceuticals, LLC, priority 2018, dated 2021), this text covers IC50 for 19 compounds.

In this assay the target is T1, human CaMKIIδ (Homo sapiens, UniProt Q13557).
T1 construct: Full-length, glutathione-S-transferase(GST)-tagged, human CaMKIIδ was purchased from Carna Biosciences; purchased Carna Biosciences (CaMKIIδ); Wako Pure Chemical Industries (calmodulin) 02-111
The experiment in a line: In vitro CaMKII inhibitory activity (binding assay, TR-FRET). To be noted: Table 4, GST-tagged human CaMKIIδ, activity ranks. As to the method:
Evaluation of In Vitro CaMKII Inhibitory Activity (Binding Assay)
In vitro CaMKIIδ inhibitory activity was evaluated by a binding assay.
Full-length, glutathione-S-transferase(GST)-tagged, human CaMKIIδ was purchased from Carna Biosciences (product #02-111, Kobe, Japan). Full-length bovine calmodulin was purchased from Wako Pure Chemical Industries (Osaka, Japan). Terbium-labeled anti-GST antibody (Tb-anti-GST Ab) was purchased from Life Technologies (Carlsbad, Calif., USA). Boron-dipyrromethene (BODIPY)-labeled probe ligand was synthesized as described below.
Time-Resolved Fluorescence Resonance Energy Transfer (TR-FRET) Assay
All assays were conducted using 384-well, white, flat-bottomed plates (product #784075, Greiner Bio-One, Frickenhausen, Germany) in kinase assay buffer, which consists of 50 mM HEPES pH 7.6, 10 mM MgCl2, 1 mM EGTA, 0.01% Brig-35, 0.1 mM DTT). The fluorescent probe ligand was added at a final concentration of 300 nM to solutions containing 0.21 nM Tb-anti-GST Ab, 1 mM CaCl2, 10 μg/mL calmodulin, and 0.5 nM GST-tagged CaMKIIδ. After shaded incubation of the protein-probe mixture on ice for 30 min, the premix was dispensed in the assay plate including test inhibitors with 4 fold dilution series of eight concentrations. After 1 hr incubation at room temperature, TR-FRET signals were measured in duplicate using an EnVision microplate reader (Perkin Elmer, Waltham, Mass., USA). The solution in each well was excited with a laser (λ=340 nm) reflected by a dichroic mirror (D400/D505 (Perkin Elmer) through an excitation filter (UV (TRF) 340, (Perkin Elmer)), and fluorescence from Tb and BODIPY were detected through two emission filters (CFP 495 (Perkin Elmer) for Tb, Emission 520 (Perkin Elmer) for BODIPY).
The percentage of inhibition of test compounds was calculated according to equation (1) Inhibition(%)=100×(μH−T)/(μH−μL) (1)
Where T is the value of the wells containing test compounds and μH and μL are the mean values of the 0% and 100% inhibition control wells, respectively. The values of the 0 and 100% controls were the signals obtained in the absence and presence of 3 μM its parent compound, respectively. The half maximal inhibitory concentration (IC50) of test compounds was calculated by fitting the data with the logistic equation using XLfit (IDBS, Guildford, UK). The IC50 was classified according to the following activity ranks.
As to `C[C@@H](Cn1cnnn1)Oc1cc(-c2cnc(Nc3cn([C@H]4CC[C@H](N5CCOCC5)CC4)nc3OCC3COC3)nc2)ccc1Cl` [Example 491, 5-(3-(((S)-1-(1H-tetrazol-1-yl)propan-2-yl)oxy)-4-chlorophenyl)-N-(1-((1r,4r)-4-morpholinocyclohexyl)-3-(oxetan-3-ylmethoxy)-1H-pyrazol-4-yl)pyrimidin-2-amine], the half-inhibitory concentration (IC50) is less than 10 nM.
Turning to `C[C@@H](Cn1cnnn1)Oc1cc(-c2cnc(Nc3cn([C@H]4CC[C@H](N5CCOCC5)CC4)nc3OCC3COC3)nc2)ccc1C#N` [Example 492, 2-(((S)-1-(1H-tetrazol-1-yl)propan-2-yl)oxy)-4-(2-((1-((1r,4r)-4-morpholinocyclohexyl)-3-(oxetan-3-ylmethoxy)-1H-pyrazol-4-yl)amino)pyrimidin-5-yl)benzonitrile], the half-inhibitory concentration (IC50) was less than 10 nM.
To `C[C@@H](Cn1cnnn1)Oc1cc(-c2cnc(Nc3cn([C@H]4CC[C@H](N5CCOCC5)CC4)nc3OCCCC#N)nc2)ccc1Cl` [Example 493, 4-((4-((5-(3-(((S)-1-(1H-tetrazol-1-yl)propan-2-yl)oxy)-4-chlorophenyl)pyrimidin-2-yl)amino)-1-((1r,4r)-4-morpholinocyclohexyl)-1H-pyrazol-3-yl)oxy)butanenitrile] belongs less than 10 nM; to `C[C@@H](Cn1cnnn1)Oc1cc(-c2cnc(Nc3cn([C@H]4CC[C@H](N5CCOCC5)CC4)nc3OCCCC#N)nc2)ccc1C#N` [Example 494, 2-(((S)-1-(1H-tetrazol-1-yl)propan-2-yl)oxy)-4-(2-((3-(3-cyanopropoxy)-1-((1r,4r)-4-morpholinocyclohexyl)-1H-pyrazol-4-yl)amino)pyrimidin-5-yl)benzonitrile], less than 10 nM.
`C[C@@H](Cn1cnnn1)Oc1cc(-c2cnc(Nc3cn([C@H]4CC[C@H](N5CCOCC5)CC4)nc3OCCC(C)(C)O)nc2)ccc1C#N` [Example 495, 2-(((S)-1-(1H-tetrazol-1-yl)propan-2-yl)oxy)-4-(2-((3-(3-hydroxy-3-methylbutoxy)-1-((1r,4r)-4-morpholinocyclohexyl)-1H-pyrazol-4-yl)amino)pyrimidin-5-yl)benzonitrile] had an IC50 of less than 10 nM.
`COC(C)(C)CCOc1nn([C@H]2CC[C@H](N3CCOCC3)CC2)cc1Nc1ncc(-c2ccc(C#N)c(O[C@@H](C)Cn3cnnn3)c2)cn1` [Example 496, 2-(((S)-1-(1H-tetrazol-1-yl)propan-2-yl)oxy)-4-(2-((3-(3-methoxy-3-methylbutoxy)-1-((1r,4r)-4-morpholinocyclohexyl)-1H-pyrazol-4-yl)amino)pyrimidin-5-yl)benzonitrile] registered an IC50 of less than 10 nM.
To `C[C@@H](Cn1cnnn1)Oc1cc(-c2cnc(Nc3cn([C@H]4CC[C@H](N5CCOCC5)CC4)nc3OCC3CCOCC3)nc2)ccc1Cl` [Example 497, 5-(3-(((S)-1-(1H-tetrazol-1-yl)propan-2-yl)oxy)-4-chlorophenyl)-N-(1-((1r,4r)-4-morpholinocyclohexyl)-3-((tetrahydro-2H-pyran-4-yl)methoxy)-1H-pyrazol-4-yl)pyrimidin-2-amine] belongs less than 10 nM.
To `C[C@@H](Cn1cnnn1)Oc1cc(-c2cnc(Nc3cn([C@H]4CC[C@H](N5CCOCC5)CC4)nc3OCC3CCOC3)nc2)ccc1Cl` (stereo partly drawn) [Example 498, 5-(3-(((S)-1-(1H-tetrazol-1-yl)propan-2-yl)oxy)-4-chlorophenyl)-N-(1-((1r,4r)-4-morpholinocyclohexyl)-3-((tetrahydrofuran-3-yl)methoxy)-1H-pyrazol-4-yl)pyrimidin-2-amine] belongs less than 10 nM; to `C[C@@H](Cn1cnnn1)Oc1cc(-c2cnc(Nc3cn([C@H]4CC[C@H](N5CCOCC5)CC4)nc3OCC3CCCOC3)nc2)ccc1Cl` (stereo partly drawn) [Example 499, 5-(3-(((S)-1-(1H-tetrazol-1-yl)propan-2-yl)oxy)-4-chlorophenyl)-N-(1-((1r,4r)-4-morpholinocyclohexyl)-3-((tetrahydro-2H-pyran-3-yl)methoxy)-1H-pyrazol-4-yl)pyrimidin-2-amine], less than 10 nM.
With `C[C@@H](Cn1cnnn1)Oc1cc(-c2cnc(Nc3cn([C@H]4CC[C@H](N5CCOCC5)CC4)nc3OCCC(C)(C)O)nc2)ccc1Cl` [Example 500, 4-((4-((5-(3-(((S)-1-(1H-tetrazol-1-yl)propan-2-yl)oxy)-4-chlorophenyl)pyrimidin-2-yl)amino)-1-((1r,4r)-4-morpholinocyclohexyl)-1H-pyrazol-3-yl)oxy)-2-methylbutan-2-ol], the IC50 is less than 10 nM.
In the case of `C[C@@H](Cn1cnnn1)Oc1cc(-c2cnc(Nc3cn([C@H]4CC[C@H](N5CCOCC5)CC4)nc3OCc3cncs3)nc2)ccc1Cl` [Example 501, 5-(3-(((S)-1-(1H-tetrazol-1-yl)propan-2-yl)oxy)-4-chlorophenyl)-N-(1-((1r,4r)-4-morpholinocyclohexyl)-3-(thiazol-5-ylmethoxy)-1H-pyrazol-4-yl)pyrimidin-2-amine] it was less than 10 nM; in that of `C[C@@H](Cn1cnnn1)Oc1cc(-c2cnc(Nc3cn([C@H]4CC[C@H](N5CCOCC5)CC4)nc3OCc3ccnn3C)nc2)ccc1Cl` [Example 502, 5-(3-(((S)-1-(1H-tetrazol-1-yl)propan-2-yl)oxy)-4-chlorophenyl)-N-(3-((1-methyl-1H-pyrazol-5-yl)methoxy)-1-((1r,4r)-4-morpholinocyclohexyl)-1H-pyrazol-4-yl)pyrimidin-2-amine], less than 10 nM; in that of `C[C@@H](Cn1cnnn1)Oc1cc(-c2cnc(Nc3cn([C@H]4CC[C@H](N5CCOCC5)CC4)nc3OCc3ncco3)nc2)ccc1Cl` [Example 503, 5-(3-(((S)-1-(1H-tetrazol-1-yl)propan-2-yl)oxy)-4-chlorophenyl)-N-(1-((1r,4r)-4-morpholinocyclohexyl)-3-(oxazol-2-ylmethoxy)-1H-pyrazol-4-yl)pyrimidin-2-amine], less than 10 nM.
As for `C[C@@H](Cn1cnnn1)Oc1cc(-c2cnc(Nc3cn([C@H]4CC[C@H](N5CCOCC5)CC4)nc3OCc3nccs3)nc2)ccc1Cl` [Example 504, 5-(3-(((S)-1-(1H-tetrazol-1-yl)propan-2-yl)oxy)-4-chlorophenyl)-N-(1-((1r,4r)-4-morpholinocyclohexyl)-3-(thiazol-2-ylmethoxy)-1H-pyrazol-4-yl)pyrimidin-2-amine], the IC50 is less than 10 nM.
To `C[C@@H](Cn1cnnn1)Oc1cc(-c2cnc(Nc3cn(C4CCC(N5CCOCC5)CC4)nc3OCc3ccnn3C)nc2)ccc1Cl` (stereo partly drawn) [Example 505, 5-(3-(((S)-1-(1H-tetrazol-1-yl)propan-2-yl)oxy)-4-chlorophenyl)-N-(3-((1-methyl-1H-pyrazol-5-yl)methoxy)-1-((1r,4r)-4-morpholinocyclohexyl)-1H-pyrazol-4-yl)pyrimidin-2-amine] belongs less than 10 nM; to `Cc1noc(C)c1COc1nn([C@H]2CC[C@H](N3CCOCC3)CC2)cc1Nc1ncc(-c2ccc(Cl)c(O[C@@H](C)Cn3cnnn3)c2)cn1` [Example 506, 5-(3-(((S)-1-(1H-tetrazol-1-yl)propan-2-yl)oxy)-4-chlorophenyl)-N-(3-((3,5-dimethylisoxazol-4-yl)methoxy)-1-((1r,4r)-4-morpholinocyclohexyl)-1H-pyrazol-4-yl)pyrimidin-2-amine], less than 10 nM.
To `C[C@@H](Cn1cnnn1)Oc1cc(-c2cnc(Nc3cn([C@H]4CC[C@H](N5CCOCC5)CC4)nc3OCCn3ccnc3)nc2)ccc1Cl` [Example 507, N-(3-(2-(1H-imidazol-1-yl)ethoxy)-1-((1r,4r)-4-morpholinocyclohexyl)-1H-pyrazol-4-yl)-5-(3-(((S)-1-(1H-tetrazol-1-yl)propan-2-yl)oxy)-4-chlorophenyl)pyrimidin-2-amine] belongs less than 10 nM.
Regarding `C[C@@H](Cn1cnnn1)Oc1cc(-c2cnc(Nc3cn([C@H]4CC[C@H](N5CCOCC5)CC4)nc3OCCCn3cncn3)nc2)ccc1Cl` [Example 508, N-(3-(3-(1H-1,2,4-triazol-1-yl)propoxy)-1-((1r,4r)-4-morpholinocyclohexyl)-1H-pyrazol-4-yl)-5-(3-(((S)-1-(1H-tetrazol-1-yl)propan-2-yl)oxy)-4-chlorophenyl)pyrimidin-2-amine], the half-maximal inhibitory concentration (IC50) is less than 10 nM.
In the case of `C[C@@H](Cn1cnnn1)Oc1cc(-c2cnc(Nc3cn([C@H]4CC[C@H](N5CCOCC5)CC4)nc3OCc3ncccn3)nc2)ccc1Cl` [Example 509, 5-(3-(((S)-1-(1H-tetrazol-1-yl)propan-2-yl)oxy)-4-chlorophenyl)-N-(1-((1r,4r)-4-morpholinocyclohexyl)-3-(pyrimidin-2-ylmethoxy)-1H-pyrazol-4-yl)pyrimidin-2-amine] it was 10 to 100 nM.
